Data as given in publication PMC10077545, “Exploration of Antiproliferative Activity and Apoptosis Induction of New Nickel(II) Complexes Encompassing Carbazole Ligands” (ACS Omega, 2023).
Where two headings read alike, the source gives them in different places.

Columns and labels:
[1] = test system: human cervical carcinoma (HeLa); assay: MTT assay, in vitro cell viability, HeLa; assay type: cell-based; conditions: ± standard deviation
Method: (§1) To study the ability of the prepared ligands and the synthesized complexes in retarding the growth of cancer cell, the MTT assay was performed with human cervical carcinoma (HeLa), human colon carcinoma (HT-29), and non-cancerous L929 (fibroblast) cell lines. As a reference, cisplatin is also examined with all the cell lines for an incubation period of 24 h and as stated in Table 1.
(§2) 2. Experimental Procedures […]
(§3) The cell lines HeLa, HT-29, and L929 were collected from ATCC and the stock cells were cultured in DMEM/ F12 enriched with 10% inactivated Fetal Bovine Serum (FBS), penicillin (100 IU/ml), streptomycin (100 µg/ml) in a humidified atmosphere of 5% carbon dioxide at 37 °C until confluent. The cells were dissociated with cell dissociating solution (0.2 % trypsin, 0.02 % EDTA, 0.05 % glucose in PBS). The viability of the cells have been checked and centrifuged. Further, 50,000 cells /well of […] was seeded in a 96 well plate and incubated for 24 hours at 37 °C, 5 % carbon dioxide incubator.
(§4) The monolayer cell culture has been trypsinized and the cell count was altered to […] using respective media comprising 10% FBS. 100 µL of the diluted cell suspension (50,000 cells/well) was added to each well of the 96 well microtiter plate. When a partial monolayer formed after 24 hours, the supernatant was swiped off and the monolayer has been washed with the medium. 100 µL of various concentrations of complexes have been added on to the partial monolayer in microtiter plates. Then, the […]
(§5) incubation, the test solutions in the wells have been discarded and 100 µL of MTT (5 mg/10 ml of MTT in PBS) was added to each well. The plates have been incubated for four hours at 37 °C in 5% carbon dioxide atmosphere. The supernatant has been removed and 100 µL of DMSO was applied to dissolve the formed formazan. The absorbance was recorded using a microplate reader at 590 nm. The % growth inhibition has been determined using the […]
(§6) Cell viability (%) = (Absorbance of each well/ Absorbance of control well) × 100 […]
(§7) Hoechst 33342 staining method
(§8) 5 × 10^5 HeLa cells have been incubated with IC50 concentration of the complex 4 for 24 hours in a 6-well culture plate and have been fixed with 4% paraformaldehyde followed by permeabilization with 0.1% Triton X-100. Cells were then stained with 50 μg /mL Hoechst 33342 for 30 min at ambient temperature. The cells undergoing apoptosis were observed and visualized by epifluorescence microscope (Carl Zeiss, Germany).

[2] = test system: human colon carcinoma (HT-29); assay: MTT assay, in vitro cell viability, HT-29; assay type: cell-based; conditions: ± standard deviation
Method: as §1, §2, §3, §4, §5, §6, §7, §8

[3] = test system: non-cancerous L929 (fibroblast) cell lines; assay: MTT assay, in vitro cell viability, L929; assay type: cell-based; conditions: ± standard deviation
Method: as §1, §2, §3, §4, §5, §6, §7, §8

[4] = Partition coefficient (log P), shake-flask, n-octanol-water; assay type: physicochemical
From the text: The permeability of the drug molecules into a lipid cytomembrane is a prime initiative for designing drugs and its development. The main properties like absorption, transportation, and expulsion of the drugs take control over the chief pharmacokinetic properties. Accordingly, we resolve the permeability of all the complexes with the help of calculated log P values using a n-octanol–water system. Based on the solubility of the complexes in aqueous and organic phases, the log P values are determined.[22]−[24] […] Complexes 3 and 4 display higher permeability characters (log P value) due to the presence of halogen and electron-donating group, respectively. Additionally, the presence of the carbazole moiety in the complexes enhanced the lipophilicity.[25],[26]
2. Experimental Procedures
UV-visible time dependent spectral method has been used to examine the stability of the complexes. Complexes were dissolved in a minimum amount of 1% DMSO and then diluted with PBS buffer to 1×10−3 M concentration. The hydrolysis profiles of the complexes were monitored by their electronic spectra over 72 h.
Partition coefficients determination
The "shake-flask" technique was used to evaluate the lipophilicity of complexes 2 - 4 using octanol/water phase partitions. Double distilled water and analytical grade octanol (Sigma Aldrich) were used to produce octanol-saturated water and water-saturated octanol phases. Complexes 2−4 (1 mg/mL; ethanol/water) have been diluted to 2, 4, 6, 8, and 10 μg/mL in water and alternatively were diluted to 2, 4, 6, 8, and 10 μg/mL in octanol, respectively. Equal volumes (50/50) of the complexes in the proper concentrations […] have been shaken for 24 hours at ambient temperature. The organic and aqueous fractions have been separated and centrifuged when equilibrium was attained. Finally, UV-visible spectroscopy was used to determine the complex concentration in each phase. The concentration of the sample solution was used to calculate the partition coefficients (log P) by using the equation log P = log[(1−3)oct/(1−3)aq]. 4 […]

HeLa cancer cells [5] = assay: ROS detection (DCFH-DA); assay type: cell-based, human; conditions: IC50 concentration, 24 h, control 20 %
From the text: ROS, like hydrogen peroxide, superoxide anion, and hydroxyl radical, are produced on mitochondrial oxidative metabolism along with cell’s reaction toward cytokines and bacterial invasion. At low levels of ROS, it could participate in cell signaling. Whereas, at higher levels they might damage (DNA and RNA) and engage in apoptosis via mitochondrial dysfunction.[32] The quantity of ROS is detected with the help of oxidant fluorescent dye. The nonpolar dye DCFH-DA turned out to be deacetylated and transformed into DCFH (polar) by intracellular esterases. However, DCFH is not identified using a microscope. […]
(§9) To quantify the intracellular ROS, 5 × 10^5 HeLa cells have been seeded on a 6-well plate comprising cover slip and incubated overnight for attachment. […]
(§10) Culture cells on cover slips in 6‐well cell culture plates at a density around 5 x 10^5 cells/mL overnight in an incubator (5% carbon dioxide, 37 °C). […] The cells were immediately examined under a fluorescent microscope (Olympus, CKX-53, Japan), and the proportion of dead cells was calculated in at least three randomly chosen microscopic fields. […]
(§11) HeLa ells have been seeded in a 6-well plate (10^5 cells/well)) and cultured at 37 °C for 24 hours. […] Finally, apoptosis induction has been assessed using a flow cytometer (SYSMEX, Japan), and the data have been analyzed by Flow Jo software. […]

HeLa cancer cells [6] = assay: Mitochondrial membrane potential, JC-1 staining; assay type: cell-based, human; conditions: IC50 concentration, 24 h
Method: The mitochondrial dysfunction-mediated apoptosis was assayed via ROS generation. After the mitochondrial impairment, the mitochondrial membrane potential (MMP) is reduced and the same was examined using JC-1 fluorescence dye. The dye is used to assay the MMP to determine mitochondrial viability. Proapoptotic factors and other apoptotic inducing features were produced by mitochondria, which serves to be a significant role for apoptosis. […] In the control group (Figure 7A), JC-1 accumulates and produces a red fluorescence correlating to a high MMP.
(§12) Reactive Oxygen Species (ROS) Assay
as §9, §10, §11

caspase-8 = assay: Caspase activity assay, caspase-8 in HeLa cells; assay type: cell-based, human; conditions: IC50 concentration, 12 and 24 h
From the text: (§13) The apoptotic mode of cancer cell death was further substantiated by caspase activation by ELISA analysis. In eukaryotes, caspases(protease enzymes) play a significant role in induction, transduction, and amplification of intracellular apoptotic signals. Based on the amino acid composition, caspases are divided into three sub-families, namely, […], executioner, and mediator caspases.[37] Most importantly, the initiator and executioner caspases get involved in the apoptotic signaling cascade. Caspase-8 and -9 are the initiators of the extrinsic and intrinsic pathways of apoptosis, respectively. Both mechanisms converge in the activation of the executioner caspase-3.[38]
as §12, §9, §10
(§14) The caspase activity assay was determined by a chromogenic assay using caspase-3 (Calbiochem, Merck), caspase-8 and 9 (Chemicon International Inc.) colorimeter activity assay kits. […]

caspase-3 = assay: Caspase activity assay, caspase-3 in HeLa cells; assay type: cell-based, human; conditions: IC50 concentration, 12 and 24 h
From the text: as §13, §12, §9, §10, §14

caspase-9 = assay: Caspase activity assay, caspase-9 in HeLa cells; assay type: cell-based, human; conditions: IC50 concentration, 12 and 24 h
From the text: as §13, §12, §9, §10, §14

[7] = Homo sapiens, HeLa, 24 h incubation, read-out: IC50 HeLa 24 h
[8] = Homo sapiens, HeLa, 48 h incubation, read-out: IC50 HeLa 48 h
[9] = Homo sapiens, HT-29, 24 h incubation, read-out: IC50 HT-29 24 h
[10] = Homo sapiens, HT-29, 48 h incubation, read-out: IC50 HT-29 48 h
[11] = Mus musculus, L929, 24 h incubation, read-out: IC50 L929 24 h
[12] = Mus musculus, L929, 48 h incubation, read-out: IC50 L929 48 h
[13] = 24 h incubation, read-out: IC50 HeLa 24 h
[14] = 48 h incubation, read-out: IC50 HeLa 48 h
[15] = 24 h incubation, read-out: IC50 HT-29 24 h
[16] = 48 h incubation, read-out: IC50 HT-29 48 h
[17] = 24 h incubation, read-out: IC50 L929 24 h
[18] = 48 h incubation, read-out: IC50 L929 48 h
[19] = n-octanol-water system, shake-flask, UV-visible

SMILES | IC50 [1, 7] [µM] | IC50 [1, 8] [µM] | IC50 [2, 9] [µM] | IC50 [2, 10] [µM] | IC50 [3, 11] [µM] | IC50 [3, 12] [µM] | IC50 [1, 13] [µM] | IC50 [1, 14] [µM] | IC50 [2, 15] [µM] | IC50 [2, 16] [µM] | IC50 [3, 17] [µM] | IC50 [3, 18] [µM] | log P [4, 19] | log P [4] | % of fluorescence intensity, reactive oxygen species (DCFH-DA) (HeLa cancer cells [5]) [%] | Mitochondrial membrane potential (JC-1 fluorescence) (HeLa cancer cells [6]) | Expression of caspase-8 (caspase-8) | Caspase-3 activity versus control cells (caspase-3) | Caspase-9 activity versus control cells (caspase-9)
O=C(N/N=C1/CCCc2c1[nH]c1ccccc21)c1ccc(Cl)cc1 [L2] | > 100 | 86.2 ± 1.12 | > 100 | 94 ± 1.27 | > 100 | > 100 | – | – | – | – | – | – | – | – | – | – | – | – | –
c1ccc(C(=NN=C2CCCc3c2[nH]c2ccccc32)[O][Ni][O]C(=NN=C2CCCc3c2[nH]c2ccccc32)c2ccccc2)cc1 [complex 2, [Ni(L1)2]] | – | – | – | – | – | – | 49.3 ± 1.05 | 40.12 ± 0.09 | 68.59 ± 0.27 | 61.25 ± 0.47 | 248.1 ± 1.12 | 236.3 ± 1.45 | 0.86 ± 0.14 | – | – | – | – | – | –
Clc1ccc(C(=NN=C2CCCc3c2[nH]c2ccccc32)[O][Ni][O]C(=NN=C2CCCc3c2[nH]c2ccccc32)c2ccc(Cl)cc2)cc1 [complex 3, [Ni(L2)2]] | – | – | – | – | – | – | 45.4 ± 0.72 | 32.8 ± 1.19 | 59.2 ± 0.64 | 50.8 ± 1.11 | 253.1 ± 0.61 | 247.4 ± 0.28 | – | 1.57 ± 0.12 | – | – | – | – | –
COc1ccc(C(=NN=C2CCCc3c2[nH]c2ccccc32)[O][Ni][O]C(=NN=C2CCCc3c2[nH]c2ccccc32)c2ccc(OC)cc2)cc1 [complex 4, [Ni(L3)2]] | – | – | – | – | – | – | 43.39 ± 0.21 | 28.2 ± 0.32 | 57.42 ± 0.09 | 41.2 ± 1.28 | 275.8 ± 0.35 | 269.1 ± 1.1 | 1.95 ± 0.05 | – | 80 | decrease in MMP | efficiently upregulated | time-dependent increase | time-dependent increase
N.N.[Cl][Pt][Cl] [cisplatin, reference compound] | – | – | – | – | – | – | 28.04 ± 0.18 | 12.4 ± 1.81 | 34.3 ± 1.45 | 14.3 ± 1.57 | 146.5 ± 0.79 | 141.2 ± 0.37 | – | – | – | – | – | – | –
COc1ccc(C(=O)N/N=C2/CCCc3c2[nH]c2ccccc32)cc1 [L3] | > 100 | 73.4 ± 0.82 | > 100 | 81.7 ± 1.09 | > 100 | > 100 | – | – | – | – | – | – | – | – | – | – | – | – | –
O=C(N/N=C1/CCCc2c1[nH]c1ccccc21)c1ccccc1 [L1] | > 100 | > 100 | > 100 | > 100 | > 100 | > 100 | – | – | – | – | – | – | – | – | – | – | – | – | –
